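Five concentrations, 48 hours, 96-well plates. GI50 is the concentration that inhibits growth by half.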 Calls of active or inactive are those of the source. Cut-off read from the data, not from the text of the source: active = GI50 up to about 1.1 µM and inactive = higher.
What was measured:
Assay in all cases: inhibition of tumour cell growth, NCI panel, 48 h
[1] = tested on: 786-0
[2] = tested on: ACHN
[3] = tested on: CAKI-1
[4] = tested on: COLO 205
[5] = tested on: EKVX
[6] = tested on: HCC 2998
[7] = tested on: MCF7
[8] = tested on: MDA-MB-435
[9] = tested on: MOLT-4
[10] = tested on: NCI/ADR-RES
[11] = tested on: OVCAR-4
[12] = tested on: OVCAR-5
[13] = tested on: OVCAR-8
[14] = tested on: RPMI-8226
[15] = tested on: SK-MEL-2
[16] = tested on: SK-MEL-5
[17] = tested on: SR
[18] = tested on: UACC-257
[19] = tested on: UO-31
[20] = tested on: LOX IMVI

Measured: GI50

S=C(N1CCN(c2ccc(Cl)c(Cl)c2)CC1)N1CCN(c2ccc(Cl)c(Cl)c2)CC1
inactive: [1] 10.8 µM | [2] 14.4 µM | [3] 7.4 µM | [4] 10.6 µM | [5] 3.38 µM | [6] 13.7 µM | [7] 11.7 µM | [8] 15.4 µM | [9] 6.18 µM | [10] 16.3 µM | [11] 13.7 µM | [12] 19.6 µM | [13] 14.8 µM | [14] 18 µM | [15] 19.9 µM | [16] 15.1 µM | [17] 1.36 µM | [18] 17.1 µM | [19] 13.1 µM

CC(=O)O[C@H]1CCc2c(cc(N)c3c2C(=O)C[C@]2(C)C([C@H](C)CCCC(C)C)CCC32C)C1(C)C (stereo partly drawn)
inactive: [1] > 100 µM | [2] > 100 µM | [3] > 100 µM | [4] > 100 µM | [5] > 100 µM | [6] > 100 µM | [7] 57.9 µM | [8] 86.7 µM | [9] > 100 µM | [10] 42.4 µM | [11] 92.7 µM | [12] > 100 µM | [13] 33.3 µM | [14] > 100 µM | [15] > 100 µM | [16] > 100 µM | [17] 33.9 µM | [18] 85.7 µM | [19] > 100 µM

C#C/C=C\CCCCCCCCCCCCCC/C=C\CCCCC#CC(O)C#CCCCC/C=C\CCCCCC/C=C/C(O)C#C (stereo not drawn)
inactive: [1] 11.8 µM | [2] 20.8 µM | [3] 7.69 µM | [4] 14.1 µM | [5] 17 µM | [6] 13.1 µM | [20] 2.55 µM | [7] 5.62 µM | [8] 4.58 µM | [9] 10.1 µM | [10] 31.5 µM | [11] 6.38 µM | [12] 26.1 µM | [13] 23.3 µM | [15] 12.9 µM | [16] 5.89 µM | [17] 14.1 µM | [18] 27 µM | [19] 15.6 µM

CC1(C)CSCC(C)(C)C(=N/N)/C1=N\N
inactive: [1] > 100 µM | [2] > 100 µM | [3] > 100 µM | [4] > 100 µM | [5] > 100 µM | [6] > 100 µM | [20] > 100 µM | [7] > 100 µM | [8] > 100 µM | [10] > 100 µM | [12] > 100 µM | [13] > 100 µM | [15] > 100 µM | [16] > 100 µM | [17] > 100 µM | [18] > 100 µM
